Source: ChEMBL document CHEMBL1201862, “PubChem BioAssay data set” (2004)
Active and inactive are the calls of the source.

Columns and labels:
[1] = A Cell Based Secondary Assay To Explore Cytotoxicity of Compounds that Sensitize Mycobacterium Tuberculosis to Beta-Lactam Antibiotics.; type: functional
[2] = growth suppression of PTEN-null colon cells, dose response, cell-based, HCT116 PTEN knockout (AID 1047); type: functional;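 further: HCT116 colon tumor cells with PTEN knocked out; cells exposed to compound for 60 hours before readout; potency for loss of cell viability measured by luminescence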
[3] = growth suppression of beta-catenin-knockout colon cells, dose response, cell-based, HCT116, human colon tumor (AID 1045); type: functional;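 further: HCT116 colon tumor cells with beta catenin knocked out; cells exposed to compound for 60 hours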
[4] = target: T1, Estrogen receptor (Homo sapiens, UniProt P03372);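 further: potency for inhibiting coactivator peptide recruitment to the receptor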
T1 sequence (P03372 whole entry): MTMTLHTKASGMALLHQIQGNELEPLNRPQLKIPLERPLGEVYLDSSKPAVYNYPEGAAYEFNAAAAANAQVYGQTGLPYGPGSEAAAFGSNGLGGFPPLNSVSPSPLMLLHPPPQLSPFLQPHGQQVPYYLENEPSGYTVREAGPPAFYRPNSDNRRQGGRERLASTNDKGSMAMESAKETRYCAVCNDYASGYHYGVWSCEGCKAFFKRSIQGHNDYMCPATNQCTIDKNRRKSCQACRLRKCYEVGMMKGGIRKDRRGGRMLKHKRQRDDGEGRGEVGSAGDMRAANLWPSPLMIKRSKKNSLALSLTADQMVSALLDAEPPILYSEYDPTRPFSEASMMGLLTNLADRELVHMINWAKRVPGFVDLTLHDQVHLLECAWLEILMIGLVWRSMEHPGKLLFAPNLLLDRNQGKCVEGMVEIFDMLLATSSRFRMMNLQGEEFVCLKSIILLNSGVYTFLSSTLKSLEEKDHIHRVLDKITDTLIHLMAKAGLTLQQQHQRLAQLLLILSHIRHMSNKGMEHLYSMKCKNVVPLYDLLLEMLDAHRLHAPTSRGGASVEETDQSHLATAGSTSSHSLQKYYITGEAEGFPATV

[5] = target: T2, Aminopeptidase N (Plasmodium falciparum FcB1/Columbia, UniProt O96935); test: P. falciparum M1AAP inhibitors, biochemical, fluorogenic H-Leu-NHMec substrate, 1536-well (AID 1445); set-up: species or system Plasmodium falciparum 3D7, 3D7
T2 sequence (O96935 whole entry): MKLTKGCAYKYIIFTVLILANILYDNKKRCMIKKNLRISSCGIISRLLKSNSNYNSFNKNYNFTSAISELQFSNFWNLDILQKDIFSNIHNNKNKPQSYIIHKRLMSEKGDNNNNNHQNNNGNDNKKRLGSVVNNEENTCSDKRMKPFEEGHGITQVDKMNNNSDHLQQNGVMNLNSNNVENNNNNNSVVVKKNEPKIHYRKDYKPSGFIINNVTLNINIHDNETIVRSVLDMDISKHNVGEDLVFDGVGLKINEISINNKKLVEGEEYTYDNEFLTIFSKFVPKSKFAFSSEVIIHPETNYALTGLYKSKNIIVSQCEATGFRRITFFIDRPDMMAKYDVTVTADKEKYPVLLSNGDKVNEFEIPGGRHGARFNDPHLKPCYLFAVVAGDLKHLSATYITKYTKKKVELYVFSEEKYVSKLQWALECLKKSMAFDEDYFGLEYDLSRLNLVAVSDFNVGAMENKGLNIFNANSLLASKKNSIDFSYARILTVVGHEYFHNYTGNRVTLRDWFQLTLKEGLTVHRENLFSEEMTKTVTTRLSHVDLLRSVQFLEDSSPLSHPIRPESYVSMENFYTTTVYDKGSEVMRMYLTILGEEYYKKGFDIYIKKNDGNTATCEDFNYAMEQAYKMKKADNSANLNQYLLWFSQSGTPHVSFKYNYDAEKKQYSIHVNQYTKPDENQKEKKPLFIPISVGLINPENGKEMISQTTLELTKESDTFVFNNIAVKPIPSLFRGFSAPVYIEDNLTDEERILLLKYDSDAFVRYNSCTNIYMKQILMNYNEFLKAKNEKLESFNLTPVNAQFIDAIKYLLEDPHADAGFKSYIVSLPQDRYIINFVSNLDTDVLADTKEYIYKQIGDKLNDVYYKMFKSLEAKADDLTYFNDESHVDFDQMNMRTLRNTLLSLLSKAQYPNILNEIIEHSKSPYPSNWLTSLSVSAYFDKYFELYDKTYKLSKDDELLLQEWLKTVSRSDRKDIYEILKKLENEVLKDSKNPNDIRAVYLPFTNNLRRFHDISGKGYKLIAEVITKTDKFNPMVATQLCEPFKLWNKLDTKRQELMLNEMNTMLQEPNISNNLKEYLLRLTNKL

[6] = M. tuberculosis H37Rv growth inhibitors, H37Rv strain (AID 1626); type: functional
[7] = target: T3, Heat shock factor protein 1 (Mus musculus, UniProt P38532); test: HSF1 potentiators in luciferase reporter cells, confirmation, cell-based, NIH3T3, luminescence, dose retest (AID 435004); type: functional;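 further: stress induced by proteasome inhibitor MG132 added 30 min after compound; luciferase reporter driven by HSF1 response element in NIH3T3 cells; actives raise luminescence as potentiators of the MG132 stress response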
T3 sequence (P38532 whole entry): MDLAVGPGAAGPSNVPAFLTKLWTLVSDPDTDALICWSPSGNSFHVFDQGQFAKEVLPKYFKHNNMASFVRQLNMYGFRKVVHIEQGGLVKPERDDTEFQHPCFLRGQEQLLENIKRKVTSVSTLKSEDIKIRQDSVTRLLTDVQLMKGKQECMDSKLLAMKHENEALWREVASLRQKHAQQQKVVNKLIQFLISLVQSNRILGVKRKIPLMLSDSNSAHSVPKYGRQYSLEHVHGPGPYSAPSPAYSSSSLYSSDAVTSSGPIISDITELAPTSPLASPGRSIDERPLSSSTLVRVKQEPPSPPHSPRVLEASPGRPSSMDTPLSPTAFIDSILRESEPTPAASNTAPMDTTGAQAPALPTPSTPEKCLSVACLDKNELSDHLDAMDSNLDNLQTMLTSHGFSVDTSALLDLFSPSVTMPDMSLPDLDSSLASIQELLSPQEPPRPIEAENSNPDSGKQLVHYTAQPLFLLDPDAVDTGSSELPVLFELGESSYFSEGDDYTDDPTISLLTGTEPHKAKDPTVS

[8] = system: Vero; test: Vero cell cytotoxicity, cytotoxicity control for flavivirus capping enzyme inhibitors (AID 588742); type: functional; details: Chlorocebus sabaeus
[9] = target: Genome polyprotein (dengue virus type 2, UniProt P29990); test: Dengue-2 NS5 methyltransferase inhibitors, primary screen, biochemical, confirmation dose response (AID 588689); type: functional
Chain of Genome polyprotein (P29990 2492-3391 limits assumed): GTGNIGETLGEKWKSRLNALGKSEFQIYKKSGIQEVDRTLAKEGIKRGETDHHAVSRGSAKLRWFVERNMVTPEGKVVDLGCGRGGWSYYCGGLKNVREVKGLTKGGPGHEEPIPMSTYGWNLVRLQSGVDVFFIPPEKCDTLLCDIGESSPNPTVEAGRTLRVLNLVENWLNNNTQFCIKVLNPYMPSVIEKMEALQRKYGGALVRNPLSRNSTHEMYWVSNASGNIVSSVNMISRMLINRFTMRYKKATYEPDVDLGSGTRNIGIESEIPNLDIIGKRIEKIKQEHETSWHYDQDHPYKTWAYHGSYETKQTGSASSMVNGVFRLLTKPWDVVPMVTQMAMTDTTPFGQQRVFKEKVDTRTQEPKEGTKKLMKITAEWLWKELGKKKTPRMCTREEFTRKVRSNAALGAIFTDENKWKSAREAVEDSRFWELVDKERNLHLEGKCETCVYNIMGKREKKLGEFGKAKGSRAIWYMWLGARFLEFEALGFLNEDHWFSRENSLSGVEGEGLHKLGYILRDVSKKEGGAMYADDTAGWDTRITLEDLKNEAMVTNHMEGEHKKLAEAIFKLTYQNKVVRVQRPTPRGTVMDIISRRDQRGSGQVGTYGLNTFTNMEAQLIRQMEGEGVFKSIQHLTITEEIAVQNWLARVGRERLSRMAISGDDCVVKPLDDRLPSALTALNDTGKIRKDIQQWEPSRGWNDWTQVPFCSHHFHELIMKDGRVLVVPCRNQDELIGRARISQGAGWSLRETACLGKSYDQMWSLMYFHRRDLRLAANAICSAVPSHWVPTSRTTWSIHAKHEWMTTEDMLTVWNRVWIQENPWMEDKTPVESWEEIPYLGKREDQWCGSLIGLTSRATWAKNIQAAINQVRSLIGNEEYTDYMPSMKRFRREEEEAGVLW

[10] = target: Cytochrome P450 3A4 (Homo sapiens, UniProt P08684); details: Potency;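 further: confirmatory qHTS run detecting inhibitors and substrates of CYP3A4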
Chain of Cytochrome P450 3A4 (P08684 whole entry): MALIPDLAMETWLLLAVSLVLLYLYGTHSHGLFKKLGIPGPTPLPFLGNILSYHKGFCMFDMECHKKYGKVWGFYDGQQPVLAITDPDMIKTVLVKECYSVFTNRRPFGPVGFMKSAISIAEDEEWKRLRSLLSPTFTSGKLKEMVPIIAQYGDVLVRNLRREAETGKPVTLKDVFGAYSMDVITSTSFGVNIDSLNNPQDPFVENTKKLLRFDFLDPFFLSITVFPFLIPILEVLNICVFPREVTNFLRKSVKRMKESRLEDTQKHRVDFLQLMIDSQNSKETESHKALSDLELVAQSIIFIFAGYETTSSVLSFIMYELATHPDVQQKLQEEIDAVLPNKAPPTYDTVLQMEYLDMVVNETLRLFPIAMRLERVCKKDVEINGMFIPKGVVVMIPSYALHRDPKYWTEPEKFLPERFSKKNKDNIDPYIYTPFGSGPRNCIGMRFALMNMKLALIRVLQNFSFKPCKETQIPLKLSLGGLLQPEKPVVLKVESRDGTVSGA

[11] = target: T4, Leucine aminopeptidase (Plasmodium falciparum 3D7, UniProt Q8IL11); test: P. falciparum M17LAP inhibitors, primary screen, biochemical, fluorogenic H-Leu-NHMec substrate, 1536-well (AID 1619); type: functional
T4 sequence (Q8IL11 whole entry): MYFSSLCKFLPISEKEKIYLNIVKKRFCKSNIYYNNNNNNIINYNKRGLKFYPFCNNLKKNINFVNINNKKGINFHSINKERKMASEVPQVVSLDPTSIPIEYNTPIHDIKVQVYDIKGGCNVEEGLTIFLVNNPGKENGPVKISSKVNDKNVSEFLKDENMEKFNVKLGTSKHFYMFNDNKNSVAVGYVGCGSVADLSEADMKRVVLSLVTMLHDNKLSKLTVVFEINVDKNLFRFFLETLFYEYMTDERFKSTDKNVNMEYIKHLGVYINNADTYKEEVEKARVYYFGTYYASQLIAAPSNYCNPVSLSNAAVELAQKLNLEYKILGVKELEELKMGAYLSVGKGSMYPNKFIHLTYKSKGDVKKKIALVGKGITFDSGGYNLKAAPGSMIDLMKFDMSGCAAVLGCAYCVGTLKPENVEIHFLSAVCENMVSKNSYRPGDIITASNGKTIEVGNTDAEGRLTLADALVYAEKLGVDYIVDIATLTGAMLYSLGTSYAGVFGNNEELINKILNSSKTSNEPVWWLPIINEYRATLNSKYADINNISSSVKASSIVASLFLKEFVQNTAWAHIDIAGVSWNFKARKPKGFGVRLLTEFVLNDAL

[12] = target: Luciferin 4-monooxygenase (Photinus pyralis, UniProt P08659); test: Counter Screen for Luciferase-based Assay Positives. [Related pubchem assays: 620, 618, 411 ]
Chain of Luciferin 4-monooxygenase (P08659 whole entry): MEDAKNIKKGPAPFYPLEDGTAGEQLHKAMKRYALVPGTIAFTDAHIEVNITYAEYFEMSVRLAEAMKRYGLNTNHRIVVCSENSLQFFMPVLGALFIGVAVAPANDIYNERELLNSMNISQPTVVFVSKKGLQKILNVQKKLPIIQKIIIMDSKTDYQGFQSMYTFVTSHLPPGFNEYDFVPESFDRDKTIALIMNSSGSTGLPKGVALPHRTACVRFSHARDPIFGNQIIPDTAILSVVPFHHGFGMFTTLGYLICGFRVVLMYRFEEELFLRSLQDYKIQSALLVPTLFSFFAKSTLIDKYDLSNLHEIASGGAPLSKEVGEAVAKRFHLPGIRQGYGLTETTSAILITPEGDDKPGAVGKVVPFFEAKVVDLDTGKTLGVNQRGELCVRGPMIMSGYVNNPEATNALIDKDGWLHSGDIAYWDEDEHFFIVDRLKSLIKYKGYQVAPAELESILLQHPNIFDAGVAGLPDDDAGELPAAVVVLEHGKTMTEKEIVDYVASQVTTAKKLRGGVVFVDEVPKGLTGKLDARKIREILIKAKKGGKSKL

[13] = cells; type: functional, cell-based
[14] = inhibitors of intracellular T. cruzi replication, confirmation, NIH3T3 host cells, beta-gal luminescence (AID 2044); type: functional, cell-based;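 further: intracellular parasites grown in NIH/3T3 mouse fibroblasts as host cells; luminescent beta-galactosidase reporter signal from transgenic T. cruzi replicating inside host cells; inhibitors lower the luminescence signal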
[15] = cells; type: functional, cell-based; remark: listed apart in the source
[16] = system: HT-1080; test: cytotoxicity in HT1080 fibrosarcoma cells, cell-based, fluorescence readout (AID 620); type: functional; details: Homo sapiens
[17] = cytotoxicity toward NIH3T3 fibroblasts, dose response, counter-screen, cell-based, ATP luminescence, mouse fibroblasts (AID 2010); type: functional;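 further: cells exposed to compound for about 90 hours before reading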
[18] = target: Nonstructural protein 1 (Influenza A virus, UniProt Q194T2); type: functional, Influenza A virus (A/California/07/2009(H1N1))
Chain of Nonstructural protein 1 (Q194T2 whole entry): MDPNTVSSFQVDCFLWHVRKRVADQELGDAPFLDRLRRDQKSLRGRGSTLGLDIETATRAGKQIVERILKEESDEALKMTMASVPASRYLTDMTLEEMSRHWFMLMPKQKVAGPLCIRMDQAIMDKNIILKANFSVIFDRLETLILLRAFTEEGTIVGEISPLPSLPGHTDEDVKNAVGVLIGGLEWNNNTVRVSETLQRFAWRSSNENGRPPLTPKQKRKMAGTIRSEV

[19] = Shn3 3'UTR reporter inhibitors, dose response, cell-based, Clone20 osteoblasts, firefly luciferase, cherry-picked (AID 624132); type: functional;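 further: firefly luciferase luminescence from reporter carrying the Shn3 3'UTR in osteoblasts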
[20] = HepG2 cell cytotoxicity, dose response, cytotoxicity control for Shn3 inhibitor project, CellTiter-Glo, cherry-picked (AID 624134); type: functional, cell-based
[21] = control 3'UTR Renilla luciferase suppression, dose response, counter-screen for Shn3 inhibitor project, cell-based, Clone20-Shn3RL, cherry-picked (AID 624133); type: functional
[22] = target: Cytochrome P450 2C19 (Homo sapiens, UniProt P33261); test: Cytochrome panel assay with activity outcomes. Panel member name: p450-cyp2c19 Compounds with AC50 equal or less than 10 uM are considered active; type: functional; details: read-out: AC50
Chain of Cytochrome P450 2C19 (P33261 whole entry): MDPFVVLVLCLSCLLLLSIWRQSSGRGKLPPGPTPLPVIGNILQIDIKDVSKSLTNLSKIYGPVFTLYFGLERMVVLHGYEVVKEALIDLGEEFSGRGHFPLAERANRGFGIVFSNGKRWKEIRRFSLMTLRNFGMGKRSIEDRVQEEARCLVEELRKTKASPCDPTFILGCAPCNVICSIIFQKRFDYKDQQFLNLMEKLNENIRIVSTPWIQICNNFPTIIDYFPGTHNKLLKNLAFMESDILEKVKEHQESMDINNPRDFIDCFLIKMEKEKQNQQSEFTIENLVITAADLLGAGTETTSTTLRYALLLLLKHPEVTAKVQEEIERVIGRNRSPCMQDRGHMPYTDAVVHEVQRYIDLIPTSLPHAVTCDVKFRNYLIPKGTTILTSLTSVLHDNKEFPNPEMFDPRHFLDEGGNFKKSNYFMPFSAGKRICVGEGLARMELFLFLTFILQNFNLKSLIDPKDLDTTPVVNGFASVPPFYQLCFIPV

[23] = system: Streptococcus sp. 'group A'; test: growth inhibition of control SK(-) GAS strain, dose response, counter-screen for streptokinase expression inhibitor project, luminescence, kanamycin, BacTiterGlo, confirmation (AID 1900); type: functional, organism-based
[24] = target: T5, Streptokinase A (Streptococcus pyogenes serotype M1, UniProt P10520); test: S. pyogenes streptokinase expression inhibitors, potency, dose response, plasminogen activation absorbance, OD405 (AID 1914); type: functional, Streptococcus pyogenes M1 GAS;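 further: secreted streptokinase activity via plasminogen activation per viability signal from cell pellet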
T5 sequence (P10520 whole entry): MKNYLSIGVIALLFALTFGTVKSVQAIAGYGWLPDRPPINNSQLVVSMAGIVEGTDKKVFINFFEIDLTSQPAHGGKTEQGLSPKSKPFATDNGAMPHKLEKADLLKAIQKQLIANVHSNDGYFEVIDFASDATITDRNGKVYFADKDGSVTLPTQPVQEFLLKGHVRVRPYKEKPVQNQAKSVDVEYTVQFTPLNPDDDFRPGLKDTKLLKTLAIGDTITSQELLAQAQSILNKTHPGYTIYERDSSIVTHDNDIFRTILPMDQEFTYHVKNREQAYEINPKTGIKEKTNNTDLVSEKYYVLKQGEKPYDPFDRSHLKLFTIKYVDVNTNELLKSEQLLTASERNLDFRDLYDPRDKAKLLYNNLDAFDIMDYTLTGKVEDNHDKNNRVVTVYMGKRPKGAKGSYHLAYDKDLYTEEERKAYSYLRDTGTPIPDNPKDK

[25] = Luminescence-based dose response cell-based high throughput screening assay for cytotoxic compounds using the IEC-6 intestinal epithelial cell line. [Related pubchem assays: 1858 (Summary AID.), 1825 (Counterscreen.), 1907 (Confirmation screen.)]; type: functional
[26] = system: Streptococcus; test: Group A Streptococcus viability loss, dose response, counter-screen for streptokinase expression inhibitor project, luminescence, BacTiterGlo (AID 1915); type: functional, organism-based;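 further: potency for reduction of bacterial viability or growth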
[27] = target: Trypsin (Sus scrofa, UniProt P00761); test: porcine trypsin inhibitors, dose response, selectivity assay for Rce1 protease inhibitor project, biochemical, quenched peptide fluorescence, cherry-pick (AID 488789)
Chain of Trypsin (P00761 whole entry): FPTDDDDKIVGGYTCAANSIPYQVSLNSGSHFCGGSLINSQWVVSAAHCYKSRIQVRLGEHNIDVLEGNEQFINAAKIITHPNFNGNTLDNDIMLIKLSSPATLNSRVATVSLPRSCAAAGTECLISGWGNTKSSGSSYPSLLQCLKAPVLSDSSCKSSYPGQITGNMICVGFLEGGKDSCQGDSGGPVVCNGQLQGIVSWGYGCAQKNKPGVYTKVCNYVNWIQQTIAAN

## COc1ccc(-c2c(C(F)(F)F)oc3cc(OCC(=O)Nc4ccccc4C(F)(F)F)ccc3c2=O)cc1OC
[1]
  CC50: 10.9 µM (active)
[2]
  EC50: 3.45 µM (active)
[3]
  EC50: 3.72 µM (active)

## CCC/C(=N/Nc1ccc(Cl)cc1)c1cnnc(-c2ccccc2)n1
[4]
  IC50: 3.85 µM (active)

## COCCCn1c(=N)c(C(=O)NCC2CCCO2)cc2c(=O)n3cccc(C)c3nc21 (stereo unspecified)
[5]
  IC50: 78.4 µM (active)

## COc1cccc(/C=N/NC(=O)NC23CC4CC(CC(C4)C2)C3)c1O
[1]
  CC50: 23.3 µM (active)

## O=C(CCC(=O)Nc1ccc(Oc2ccccc2)cc1)NCCO
[6]
  IC50: > 100 µM (active)

## COc1cccc(OCc2nnc(SCC(=O)NCc3ccco3)n2CCc2ccccc2)c1
[4]
  IC50: > 50 µM (not active)

## Cc1nccc(-c2cccc(N/N=C(\C#N)C(=O)c3ccccc3)c2)n1
[5]
  IC50: 16 µM (active)

## CCOc1cc([N+](=O)[O-])cc(/C=C2/NC(=O)N(Cc3ccccc3F)C2=O)c1O
[5]
  IC50: 55.6 µM (active)
[7]
  EC50: > 260 µM (inactive)
[8]
  CC50: > 40 µM (active)
[9]
  IC50: 58.8 µM (active)

## C#CCCCCCCCCCCCc1ccco1
[10]
  AC50: 39.8 µM (inconclusive)

## CC(C)NC(=O)[C@H]1C[C@@H]1[C@H](NC(=O)OCc1ccccc1)c1ccccc1
[10]
  AC50: 7.94 µM (inconclusive)

## COc1ccc(NC(=O)CC(Cc2ccccc2)C(=O)O)cc1 (stereo unspecified)
[11]
  IC50: 18.7 µM (active)

## C=CCNc1nc(-c2ccccn2)nnc1-c1ccccc1
[12]
  EC50: < 0.2 µM (active)
[13]
  EC50: 7.13 µM (active)
[14]
  EC50: 2.27 µM (active)
[15]
  EC50: > 350 µM (not active)
[16]
  EC50: > 50 µM (not active)
[17]
  EC50: 5.1 µM (active)
[18]
  IC50: 1.25 µM (active)
[19]
  AC50: 3.17 µM (active)
[20]
  AC50: 6.36 µM (active)
[21]
  AC50: 3.97 µM (active)

## COc1cc(O)c(C)c(O)c1 [2,6-DIHYDROXY-4-METHOXYTOLUENE]
[10]
  AC50: 39.8 µM (inconclusive)

## Cc1ncc(CC(=O)n2cc(C(=O)c3cc(F)ccc3O)cn2)s1
[11]
  IC50: 71.1 µM (active)

## C[C@@H]1CC=C[C@H]2[C@H]1C(=O)N(Cc1ccccc1)[C@H]2c1ccc(/C=C/c2ccccc2)cc1F
[1]
  CC50: > 40 µM (active)

## Oc1c(/C=N/c2ccc(Oc3ccccc3)cc2)cnn1-c1cccc(Cl)n1
[6]
  IC50: > 100 µM (active)
[22]
  AC50: 11.2 µM (inconclusive)

## CCOc1ccc2[nH]c3c(N4CCc5ccccc5C4)ncnc3c2c1
[23]
  EC50: 10.4 µM (active)
[24]
  EC50: > 150 µM (not active)
[25]
  IC50: 5.99 µM (active)
[26]
  EC50: 19.9 µM (active)
[27]
  AC50: 6.04 µM (active)
